Key:
Format in all cases: in vivo
[1] = system: barnyardgrass (Echinochloa crus-galli); test: Test A postemergence; conditions: 0 to 100 scale, 0 no effect, 100 complete control, approx. 10 days
Source text: (§1) Seeds of barnyardgrass (Echinochloa crus-galli), large crabgrass (Digitaria sanguinalis), giant foxtail (Setaria faberii), morningglory (Ipomoea spp.), pigweed (Amaranthus retroflexus), velvetleaf (Abutilon theophrasti), wheat (Triticum aestivum) and corn (Zea mays) were planted into a blend of loam soil and sand and treated preemergence with a directed soil spray using test chemicals formulated in a non-phytotoxic solvent mixture which included a surfactant. At the same time these species were also treated with postemergence applications of test compounds formulated in the same manner. Plants ranged in height from 2 to 10 cm and were in the one- to two-leaf stage for the postemergence treatments. Treated plants and untreated controls were maintained in a greenhouse for approximately 10 days, after which time all treated plants were compared to untreated controls and visually evaluated for injury. Plant response ratings, summarized in Table A, are based on a 0 to 100 scale where 0 is no effect and 100 is complete control.

[2] = system: corn (Zea mays); test: Test A postemergence; conditions: 0 to 100 scale, 0 no effect, 100 complete control, approx. 10 days
Source text: as §1

[3] = system: giant foxtail (Setaria faberii); test: Test A postemergence; conditions: 0 to 100 scale, 0 no effect, 100 complete control, approx. 10 days
Source text: as §1

[4] = system: large crabgrass (Digitaria sanguinalis); test: Test A postemergence; conditions: 0 to 100 scale, 0 no effect, 100 complete control, approx. 10 days
Source text: as §1

[5] = system: morningglory (Ipomoea spp.); test: Test A postemergence; conditions: 0 to 100 scale, 0 no effect, 100 complete control, approx. 10 days
Source text: as §1

[6] = system: pigweed (Amaranthus retroflexus); test: Test A postemergence; conditions: 0 to 100 scale, 0 no effect, 100 complete control, approx. 10 days
Source text: as §1

[7] = system: velvetleaf (Abutilon theophrasti); test: Test A postemergence; conditions: 0 to 100 scale, 0 no effect, 100 complete control, approx. 10 days
Source text: as §1

[8] = system: wheat (Triticum aestivum); test: Test A postemergence; conditions: 0 to 100 scale, 0 no effect, 100 complete control, approx. 10 days
Source text: as §1

[9] = system: barnyardgrass (Echinochloa crus-galli); test: Test A preemergence; conditions: 0 to 100 scale, 0 no effect, 100 complete control, approx. 10 days
Source text: as §1

[10] = system: corn (Zea mays); test: Test A preemergence; conditions: 0 to 100 scale, 0 no effect, 100 complete control, approx. 10 days
Source text: as §1

[11] = system: giant foxtail (Setaria faberii); test: Test A preemergence; conditions: 0 to 100 scale, 0 no effect, 100 complete control, approx. 10 days
Source text: as §1

[12] = system: large crabgrass (Digitaria sanguinalis); test: Test A preemergence; conditions: 0 to 100 scale, 0 no effect, 100 complete control, approx. 10 days
Source text: as §1

[13] = system: morningglory (Ipomoea spp.); test: Test A preemergence; conditions: 0 to 100 scale, 0 no effect, 100 complete control, approx. 10 days
Source text: as §1

[14] = system: pigweed (Amaranthus retroflexus); test: Test A preemergence; conditions: 0 to 100 scale, 0 no effect, 100 complete control, approx. 10 days
Source text: as §1

[15] = system: velvetleaf (Abutilon theophrasti); test: Test A preemergence; conditions: 0 to 100 scale, 0 no effect, 100 complete control, approx. 10 days
Source text: as §1

[16] = system: wheat (Triticum aestivum); test: Test A preemergence; conditions: 0 to 100 scale, 0 no effect, 100 complete control, approx. 10 days
Source text: as §1

[17] = system: barnyardgrass (Echinochloa crus-galli); test: Test B flooded paddy test; conditions: Flood
Source text: (§2) Plant species in the flooded paddy test consisted of rice (Oryza sativa), umbrella sedge (Cyperus difformis), ducksalad (Heteranthera limosa) and barnyardgrass (Echinochloa crus-galli) grown to the 2-leaf stage for testing. At time of treatment, test pots were flooded to 3 cm above the soil surface, treated by application of test compounds directly to the paddy water, and then maintained at that water depth for the duration of the test. Treated plants and controls were maintained in a greenhouse for 13 to 15 days, after which time all species were compared to controls and visually evaluated. Plant response ratings, summarized in Table B, are based on a scale of 0 to 100 where 0 is no effect and 100 is complete control. A dash (-) response means no test result.

[18] = system: ducksalad (Heteranthera limosa); test: Test B flooded paddy test; conditions: Flood, scale 0 to 100
Source text: as §2

[19] = system: rice (Oryza sativa); test: Test B flooded paddy test; conditions: Flood, scale 0 to 100
Source text: as §2

[20] = system: umbrella sedge (Cyperus difformis); test: Test B flooded paddy test; conditions: Flood, scale 0 to 100
Source text: as §2

[21] = 250 g ai/ha, scale 0 to 100 (0 no effect, 100 complete control)

O=C1CCCC(O)=C1C(=O)c1nc(Cl)c(-c2cccc(F)c2)n(C2CCCCC2)c1=O [Compound 2, 5-chloro-1-cyclohexyl-6-(3-fluorophenyl)-3-[(2-hydroxy-6-oxo-1-cyclohexen-1-yl)carbonyl]-2(1H)pyrazinone]
Plant response rating, Barnyardgrass ([1]; 125 g ai/ha): 0
Plant response rating, Barnyardgrass ([1]; 500 g ai/ha): 30
Plant response rating, Corn ([2]; 125 g ai/ha): 0
Plant response rating, Corn ([2]; 500 g ai/ha): 0
Plant response rating, Foxtail, Giant ([3]; 125 g ai/ha): 0
Plant response rating, Foxtail, Giant ([3]; 500 g ai/ha): 20
Plant response rating, Crabgrass, Large ([4]; 125 g ai/ha): 0
Plant response rating, Crabgrass, Large ([4]; 500 g ai/ha): 30
Plant response rating, Morningglory ([5]; 125 g ai/ha): 60
Plant response rating, Morningglory ([5]; 500 g ai/ha): 90
Plant response rating, Pigweed ([6]; 125 g ai/ha): 30
Plant response rating, Pigweed ([6]; 500 g ai/ha): 70
Plant response rating, Velvetleaf ([7]; 125 g ai/ha): 70
Plant response rating, Velvetleaf ([7]; 500 g ai/ha): 100
Plant response rating, Wheat ([8]; 125 g ai/ha): 0
Plant response rating, Wheat ([8]; 500 g ai/ha): 0
Plant response rating, Barnyardgrass ([9]; 125 g ai/ha): 0
Plant response rating, Barnyardgrass ([9]; 500 g ai/ha): 40
Plant response rating, Corn ([10]; 125 g ai/ha): 0
Plant response rating, Corn ([10]; 500 g ai/ha): 0
Plant response rating, Foxtail, Giant ([11]; 125 g ai/ha): 0
Plant response rating, Foxtail, Giant ([11]; 500 g ai/ha): 30
Plant response rating, Crabgrass, Large ([12]; 125 g ai/ha): 0
Plant response rating, Crabgrass, Large ([12]; 500 g ai/ha): 50
Plant response rating, Morningglory ([13]; 125 g ai/ha): 0
Plant response rating, Morningglory ([13]; 500 g ai/ha): 80
Plant response rating, Pigweed ([14]; 125 g ai/ha): 0
Plant response rating, Pigweed ([14]; 500 g ai/ha): 80
Plant response rating, Velvetleaf ([15]; 125 g ai/ha): 0
Plant response rating, Velvetleaf ([15]; 500 g ai/ha): 90
Plant response rating, Wheat ([16]; 125 g ai/ha): 0
Plant response rating, Wheat ([16]; 500 g ai/ha): 0
Plant response rating, Barnyardgrass ([17]; 31 g ai/ha, scale 0 to 100): 0
Plant response rating, Barnyardgrass ([17]; 62 g ai/ha, scale 0 to 100): 0
Plant response rating, Barnyardgrass ([17]; 125 g ai/ha, scale 0 to 100): 0
Plant response rating, Barnyardgrass [17, 21]: 0
Plant response rating, Ducksalad ([18]; 31 g ai/ha): 0
Plant response rating, Ducksalad ([18]; 62 g ai/ha): 0
Plant response rating, Ducksalad ([18]; 125 g ai/ha): 60
Plant response rating, Ducksalad ([18]; 250 g ai/ha): 80
Plant response rating, Rice ([19]; 31 g ai/ha): 0
Plant response rating, Rice ([19]; 62 g ai/ha): 0
Plant response rating, Rice ([19]; 125 g ai/ha): 0
Plant response rating, Rice ([19]; 250 g ai/ha): 0
Plant response rating, Sedge, Umbrella ([20]; 31 g ai/ha): 0
Plant response rating, Sedge, Umbrella ([20]; 62 g ai/ha): 0
Plant response rating, Sedge, Umbrella ([20]; 125 g ai/ha): 20
Plant response rating, Sedge, Umbrella ([20]; 250 g ai/ha): 60

O=C1CCCC(O)=C1C(=O)c1nc(Cl)c(-c2cccc(Cl)c2)n(C2CCCCC2)c1=O [Compound 3, 5-chloro-6-(3-chlorophenyl)-1-cyclohexyl-3-[(2-hydroxy-6-oxo-1-cyclohexen-1-yl)carbonyl]-2(1H)-pyrazinone]
Plant response rating, Barnyardgrass ([1]; 62 g ai/ha): 0
Plant response rating, Barnyardgrass ([1]; 250 g ai/ha): 0
Plant response rating, Corn ([2]; 62 g ai/ha): 0
Plant response rating, Corn ([2]; 250 g ai/ha): 0
Plant response rating, Foxtail, Giant ([3]; 62 g ai/ha): 0
Plant response rating, Foxtail, Giant ([3]; 250 g ai/ha): 0
Plant response rating, Crabgrass, Large ([4]; 62 g ai/ha): 0
Plant response rating, Crabgrass, Large ([4]; 250 g ai/ha): 10
Plant response rating, Morningglory ([5]; 62 g ai/ha): 0
Plant response rating, Morningglory ([5]; 250 g ai/ha): 30
Plant response rating, Pigweed ([6]; 62 g ai/ha): 0
Plant response rating, Pigweed ([6]; 250 g ai/ha): 30
Plant response rating, Velvetleaf ([7]; 62 g ai/ha): 60
Plant response rating, Velvetleaf ([7]; 250 g ai/ha): 100
Plant response rating, Wheat ([8]; 62 g ai/ha): 0
Plant response rating, Wheat ([8]; 250 g ai/ha): 0
Plant response rating, Barnyardgrass ([9]; 62 g ai/ha): 0
Plant response rating, Barnyardgrass ([9]; 250 g ai/ha): 20
Plant response rating, Corn ([10]; 62 g ai/ha): 0
Plant response rating, Corn ([10]; 250 g ai/ha): 0
Plant response rating, Foxtail, Giant ([11]; 62 g ai/ha): 0
Plant response rating, Foxtail, Giant ([11]; 250 g ai/ha): 0
Plant response rating, Crabgrass, Large ([12]; 62 g ai/ha): 0
Plant response rating, Crabgrass, Large ([12]; 250 g ai/ha): 30
Plant response rating, Morningglory ([13]; 62 g ai/ha): 0
Plant response rating, Morningglory ([13]; 250 g ai/ha): 10
Plant response rating, Pigweed ([14]; 62 g ai/ha): 0
Plant response rating, Pigweed ([14]; 250 g ai/ha): 60
Plant response rating, Velvetleaf ([15]; 62 g ai/ha): 40
Plant response rating, Velvetleaf ([15]; 250 g ai/ha): 80
Plant response rating, Wheat ([16]; 62 g ai/ha): 0
Plant response rating, Wheat ([16]; 250 g ai/ha): 0
Plant response rating, Barnyardgrass ([17]; 31 g ai/ha, scale 0 to 100): 0
Plant response rating, Barnyardgrass ([17]; 62 g ai/ha, scale 0 to 100): 0
Plant response rating, Barnyardgrass ([17]; 125 g ai/ha, scale 0 to 100): 0
Plant response rating, Barnyardgrass [17, 21]: 0
Plant response rating, Ducksalad ([18]; 31 g ai/ha): 0
Plant response rating, Ducksalad ([18]; 62 g ai/ha): 20
Plant response rating, Ducksalad ([18]; 125 g ai/ha): 80
Plant response rating, Ducksalad ([18]; 250 g ai/ha): 80
Plant response rating, Rice ([19]; 31 g ai/ha): 0
Plant response rating, Rice ([19]; 62 g ai/ha): 0
Plant response rating, Rice ([19]; 125 g ai/ha): 0
Plant response rating, Rice ([19]; 250 g ai/ha): 0
Plant response rating, Sedge, Umbrella ([20]; 31 g ai/ha): 0
Plant response rating, Sedge, Umbrella ([20]; 62 g ai/ha): 0
Plant response rating, Sedge, Umbrella ([20]; 125 g ai/ha): 30
Plant response rating, Sedge, Umbrella ([20]; 250 g ai/ha): 60
